Some results are limits rather than exact numbers.

The assay in a line: Inhibition of hepatitis B virus capsid assembly infected in human HepG2.215 cells assessed as reduction in viral DNA replication measured on day 7 by real time PCR analysis.
Consider `CCOC(=O)C1=C(CN2CCOCC2)NC(c2nccn2C)=NC1c1ccc(F)cc1Br` (configuration not stated), for which the EC50 – broadly, the concentration giving half of the maximal effect – turned out to be 20 nM. Consider `CCOC(=O)C1=C(CN2CCOCC2)NC(c2nccs2)=NC1c1ccc(F)cc1F` (configuration not stated), for which the half-maximal effective concentration (EC50) came to 26 nM. Under `CCOC(=O)C1=C(CN2CC[S+]([O-])CC2)NC(c2nccs2)=NC1c1ccc(F)cc1Cl` (configuration not stated) stands 100 nM. Turning to `CCOC(=O)C1=C(CN2CCCCC2)NC(c2nccs2)=NC1c1ccc(F)cc1Cl` (configuration not stated), the EC50 turned out to be 3500 nM. The figure for `CCOC(=O)C1=C(COCCOC)NC(c2nccs2)=NC1c1ccc(F)cc1Cl` (configuration not stated) is 200 nM; for `CCOC(=O)C1=C(CO)NC(c2nccs2)=NC1c1ccc(F)cc1Cl` (configuration not stated) it is > 16400 nM. Regarding `CCOC(=O)C1=C(CN2CCOCC2)NC(c2nnc(C)s2)=NC1c1ccc(F)cc1Br` (configuration not stated), the EC50 was > 16400 nM. With `CCOC(=O)C1=C(CN2CCOCC2)NC(c2nccs2)=NC1c1ccc(F)cc1-c1ccc(OC)cc1` (configuration not stated), the half-maximal effective concentration (EC50) was > 16400 nM. Under `CCOC(=O)C1=C(CN2CCOCC2)NC(c2nccs2)=NC1c1ccc(F)cc1-c1ccc(C(F)(F)F)cc1` (configuration not stated) stands > 16400 nM; under `CCOC(=O)C1=C(CN2CCOCC2)NC(c2nccs2)=NC1c1ccccc1F` (configuration not stated), 74 nM; under `CCOC(=O)C1=C(CN2CCOCC2)NC(c2nccs2)=NC1c1ccccc1Br` (configuration not stated), 10 nM. On to `CCOC(=O)C1=C(CN2CCS(=O)(=O)CC2)NC(c2nccs2)=NC1c1ccc(F)cc1Cl` (configuration not stated), for which the concentration for a half-maximal effect (EC50) stood at 80 nM. Under `CCOC(=O)C1=C(CN2CCSCC2)NC(c2nccs2)=NC1c1ccc(F)cc1Cl` (configuration not stated) stands 250 nM.

On to `CCOC(=O)C1=C(CN2CCNCC2)NC(c2nccs2)=NC1c1ccc(F)cc1Cl` (configuration not stated), for which the EC50 was > 16400 nM. Under `CCOC(=O)C1=C(CNCCO)NC(c2nccs2)=NC1c1ccc(F)cc1Cl` (configuration not stated) stands 900 nM; under `CCOC(=O)C1=C(CN)NC(c2nccs2)=NC1c1ccc(F)cc1Cl` (configuration not stated), 5100 nM. As for `CCCOCC1=C(C(=O)OCC)C(c2ccc(F)cc2Cl)N=C(c2nccs2)N1` (configuration not stated), the 50% effective concentration (EC50) turned out to be 1200 nM.

In the case of `CCOCC1=C(C(=O)OCC)C(c2ccc(F)cc2Cl)N=C(c2nccs2)N1` (configuration not stated), the concentration for a half-maximal effect (EC50) was determined as 800 nM. On to `CCOC(=O)C1=C(COC)NC(c2nccs2)=NC1c1ccc(F)cc1Cl` (configuration not stated), for which the EC50 was > 16400 nM. As to `CC1=C(C(=O)NN)C(c2ccc(F)cc2Cl)N=C(c2nccs2)N1` (configuration not stated), the half-maximal effective concentration (EC50) was > 16400 nM. Consider `CNC(=O)C1=C(C)NC(c2nccs2)=NC1c1ccc(F)cc1Cl` (configuration not stated), for which the EC50 is > 16400 nM.

In the case of `CC1=C(C(N)=O)C(c2ccc(F)cc2Cl)N=C(c2nccs2)N1` (configuration not stated), the 50% effective concentration (EC50) is > 16400 nM. Take `CC1=C(C(=O)O)C(c2ccc(F)cc2Cl)N=C(c2nccs2)N1` (configuration not stated): the EC50 is > 16400 nM. Turning to `CC1=C(C(=O)OC(C)(C)C)C(c2ccc(F)cc2Cl)N=C(c2nccs2)N1` (configuration not stated), the EC50 was > 16400 nM. Regarding `CC1=C(C(=O)OC(C)C)C(c2ccc(F)cc2Cl)N=C(c2nccs2)N1` (configuration not stated), the concentration for a half-maximal effect (EC50) is > 16400 nM.

As to `CCOC(=O)C1=C(C)NC(c2nccs2)=NC1c1ccc(F)cc1Cl` (configuration not stated), the EC50 amounted to 150 nM. Under `COC(=O)C1=C(C)NC(c2nccs2)=NC1c1ccc(F)cc1Cl` (configuration not stated) stands 250 nM.

For the compound `COC(=O)C1=C(C)NC(c2nccs2)=N[C@H]1c1ccc(F)cc1Cl`, the half-maximal effective concentration (EC50) stood at 100 nM. Under `CCOC(=O)C1=C(CN2CCOCC2)NC(n2nnc(C)n2)=NC1c1ccc(F)cc1Br` (configuration not stated) stands > 16400 nM. As to `CCOC(=O)C1=C(CN2CCOCC2)NC(n2cnnn2)=NC1c1ccc(F)cc1Br` (configuration not stated), the EC50 was > 16400 nM. The figure for `CCOC(=O)C1=C(CN2CCOCC2)NC(c2ncn(C)n2)=NC1c1ccc(F)cc1Br` (configuration not stated) is 4300 nM; for `CCOC(=O)C1=C(CN2CCOCC2)NC(c2ncc(F)cc2F)=NC1c1ccc(F)cc1Br` (configuration not stated) it is 6 nM. As for `CCOC(=O)C1=C(CN2CCOCC2)N(C)C(c2nccs2)=NC1c1ccc(F)cc1Cl` (configuration not stated), the EC50 is > 16400 nM. Consider `Nc1ncnc2c1ncn2CCOCP(=O)(O)O` [9-[2-phosphonomethoxyethyl]adenine], for which the EC50 is 83 nM.

As to `Cc1cn([C@@H]2C[C@@H](O)[C@H](CO)O2)c(=O)[nH]c1=O` [CHEBI:63624], the EC50 is 819 nM. On to `C[C@H](Cn1cnc2c(N)ncnc21)OCP(=O)(O)O` [CHEBI:63625], for which the 50% effective concentration (EC50) amounted to 242 nM. The figure for `C=C1[C@H](CO)[C@@H](O)C[C@@H]1n1cnc2c(=O)[nH]c(N)nc21` [CHEBI:473990] is 0.24 nM.

The values above are taken from BindingDB's records for doi:10.1016/j.bmc.2016.12.017 (Sunshine Lake Pharma, 2017).
